Test results: PubChem BioAssay AID328 (DTP/NCI, 2004)
Where “and” joins values, the source holds several entries; their conditions need not be identical. Equal values may be shown once. Toxic doses and inconclusive results are not listed.

Tested on: BDF1 mice, P388 leukemia ip, median survival T/C
Test: NCI In Vivo Anticancer Drug Screen. Data for tumor model P388 Leukemia (intraperitoneal) in B6D2F1 (BDF1) mice
Settings: endpoint: median survival time, higher = longer survival
Procedure, shortened: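 Read-out is survival of treated animals expressed relative to the vehicle group, as a T/C ratio.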

[1] = dose: 100.0 mg/kg/injection, schedule: Q01DX009 (ip), vehicle: Klucel (hydroxypropylcellulose) (HPC)
[2] = dose: 100.0 mg/kg/injection, schedule: Q01DX009 (ip), vehicle: saline with Tween-80
[3] = dose: 100.0 mg/kg/injection, schedule: Q04DX003 (ip), vehicle: Klucel (hydroxypropylcellulose) (HPC)
[4] = dose: 100.0 mg/kg/injection, schedule: Q04DX003 (ip), vehicle: saline with Tween-80
[5] = dose: 200.0 mg/kg/injection, schedule: Q01DX009 (ip), vehicle: Klucel (hydroxypropylcellulose) (HPC)
[6] = dose: 200.0 mg/kg/injection, schedule: Q01DX009 (ip), vehicle: saline with Tween-80
[7] = dose: 200.0 mg/kg/injection, schedule: Q04DX003 (ip), vehicle: Klucel (hydroxypropylcellulose) (HPC)
[8] = dose: 200.0 mg/kg/injection, schedule: Q04DX003 (ip), vehicle: saline with Tween-80
[9] = dose: 400.0 mg/kg/injection, schedule: Q01DX009 (ip), vehicle: Klucel (hydroxypropylcellulose) (HPC)
[10] = dose: 400.0 mg/kg/injection, schedule: Q01DX009 (ip), vehicle: saline with Tween-80
[11] = dose: 400.0 mg/kg/injection, schedule: Q04DX003 (ip), vehicle: Klucel (hydroxypropylcellulose) (HPC)
[12] = dose: 400.0 mg/kg/injection, schedule: Q04DX003 (ip), vehicle: saline with Tween-80
[13] = dose: 25.0 mg/kg/injection, schedule: Q01DX009 (ip), vehicle: saline with Tween-80
[14] = dose: 50.0 mg/kg/injection, schedule: Q01DX009 (ip), vehicle: saline with Tween-80

## CSc1ncc2ncn(C3OC(CO)C(O)C3O)c2n1 (stereo unspecified)
dose: 100.0 mg/kg/injection, schedule: Q01DX001 (ip), vehicle: Klucel (hydroxypropylcellulose) (HPC)
  T/C: 86 % of control
[1]
  T/C: 110 % of control
[2]
  T/C: 86 % of control
[3]
  T/C: 95 % of control
[4]
  T/C: 95 % of control
dose: 200.0 mg/kg/injection, schedule: Q01DX001 (ip), vehicle: Klucel (hydroxypropylcellulose) (HPC)
  T/C: 100 % of control
[5]
  T/C: 105 % of control
[6]
  T/C: 95 % of control
[7]
  T/C: 100 % of control
[8]
  T/C: 95 % of control
dose: 400.0 mg/kg/injection, schedule: Q01DX001 (ip), vehicle: Klucel (hydroxypropylcellulose) (HPC)
  T/C: 109 % of control
[9]
  T/C: 105 % of control
[10]
  T/C: 86 % of control
[11]
  T/C: 100 % of control
[12]
  T/C: 100 % of control

## O=C1NC(c2cccc(OCc3ccccc3)c2)Nc2ccccc21 (stereo unspecified)
dose: 3.13 mg/kg/injection, schedule: Q01DX009 (ip), vehicle: Klucel (hydroxypropylcellulose) (HPC)
  T/C: 97 % of control
dose: 25.0 mg/kg/injection, schedule: Q01DX009 (ip), vehicle: Klucel (hydroxypropylcellulose) (HPC)
  T/C: 94 % of control and 110 % of control
dose: 50.0 mg/kg/injection, schedule: Q01DX009 (ip), vehicle: Klucel (hydroxypropylcellulose) (HPC)
  T/C: 108 % of control
dose: 62.5 mg/kg/injection, schedule: Q01DX009 (ip), vehicle: Klucel (hydroxypropylcellulose) (HPC)
  T/C: 150 % of control
[1]
  T/C: 120 % of control
dose: 250.0 mg/kg/injection, schedule: Q01DX009 (ip), vehicle: Klucel (hydroxypropylcellulose) (HPC)
  T/C: 166 % of control

## Cc1ccc(C(=O)O)cc1S(=O)(=O)F
[13]
  T/C: 114 % of control
[14]
  T/C: 104 % of control
dose: 50.0 mg/kg/injection, schedule: Q04DX003 (ip), vehicle: saline with Tween-80
  T/C: 101 % of control
[2]
  T/C: 98 % of control
[4]
  T/C: 102 % of control
[6]
  T/C: 104 % of control
[8]
  T/C: 101 % of control
dose: 300.0 mg/kg/injection, schedule: Q01DX009 (ip), vehicle: saline with Tween-80
  T/C: 110 % of control
[10]
  T/C: 123 % of control
[12]
  T/C: 101 % of control

## C/C=C1/CN(C)C2Cc3c([nH]c4ccccc34)C(c3cc4c5c([nH]c4cc3OC)C3(C(=O)OC)CC4CC(CC)C3N(CC5)C4)CC1C2C(=O)OC (stereo unspecified)
dose: 1.3 mg/kg/injection, schedule: Q01DX009 (ip), vehicle: alcohol
  T/C: 88 % of control
dose: 4.0 mg/kg/injection, schedule: Q01DX009 (ip), vehicle: alcohol
  T/C: 87 % of control
dose: 12.0 mg/kg/injection, schedule: Q01DX009 (ip), vehicle: alcohol
  T/C: 88 % of control

## O=C1CC(c2ccc(Cl)cc2)NC(c2ccc(Cl)cc2)C1 (stereo unspecified)
[2]
  T/C: 101 % of control
[4]
  T/C: 107 % of control
dose: 150.0 mg/kg/injection, schedule: Q01DX009 (ip), vehicle: saline with Tween-80
  T/C: 111 % of control
[6]
  T/C: 116 % of control
[8]
  T/C: 100 % of control
[12]
  T/C: 107 % of control

## CC(=O)CC(C)=O.CC(=O)CC(C)=O.CC(=O)CC(C)=O.[Cr]
dose: 100.0 mg/kg/injection, schedule: Q04DX003 (ip), vehicle: saline
  T/C: 90 % of control
dose: 200.0 mg/kg/injection, schedule: Q04DX003 (ip), vehicle: saline
  T/C: 90 % of control
dose: 400.0 mg/kg/injection, schedule: Q04DX003 (ip), vehicle: saline
  T/C: 90 % of control

## C/C(=N/N=C(N)N)c1ccc(NC(=O)Nc2ccc(/C(C)=N/N=C(N)N)cc2)cc1
dose: 66.0 mg/kg/injection, schedule: Q04DX003 (ip), vehicle: saline with Tween-80
  T/C: 154 % of control
[2]
  T/C: 90 % of control
[4]
  T/C: 150 % of control
dose: 150.0 mg/kg/injection, schedule: Q04DX003 (ip), vehicle: saline with Tween-80
  T/C: 159 % of control

## c1cn[nH]c1
dose: 4.0 mg/kg/injection, schedule: Q01DX010 (ip), vehicle: water
  T/C: 100 % of control
dose: 8.0 mg/kg/injection, schedule: Q01DX010 (ip), vehicle: water
  T/C: 90 % of control

## Oc1cc(CN2CCCC2)c(O)cc1CN1CCCC1
dose: 12.5 mg/kg/injection, schedule: Q01DX009 (ip), vehicle: saline with Tween-80
  T/C: 111 % of control
[13]
  T/C: 106 % of control
[14]
  T/C: 111 % of control
[2]
  T/C: 122 % of control

## C=CCn1nnc(-c2ccccc2)n1
[14]
  T/C: 117 % of control
[2]
  T/C: 117 % of control
[6]
  T/C: 119 % of control

## Nc1nc(-c2c[nH]c(=O)[nH]c2=O)cs1
[14]
  T/C: 103 % of control
[2]
  T/C: 98 % of control

## Cc1cc(=O)[nH]c2c1CCCCC2
dose: 50.0 mg/kg/injection, schedule: Q01DX001 (ip), vehicle: saline sonified
  T/C: 104 % of control
dose: 100.0 mg/kg/injection, schedule: Q01DX001 (ip), vehicle: saline sonified
  T/C: 95 % of control

## CCCCCCCC(=O)CCCCC
[4]
  T/C: 100 % of control
[8]
  T/C: 95 % of control
[12]
  T/C: 91 % of control

## CCCN(CCC)CCCOC(=O)c1ccc([N+](=O)[O-])cc1
dose: 50.0 mg/kg/injection, schedule: Q01DX001 (ip), vehicle: saline
  T/C: 100 % of control
dose: 100.0 mg/kg/injection, schedule: Q01DX001 (ip), vehicle: saline
  T/C: 100 % of control
dose: 200.0 mg/kg/injection, schedule: Q01DX001 (ip), vehicle: saline
  T/C: 100 % of control

## COc1cc2c(cc1OC)/C(=C1\OC(=O)c3c1ccc1c3OCO1)N(C)CC2
[4]
  T/C: 100 % of control
[8]
  T/C: 92 % of control
[12]
  T/C: 88 % of control

## C/C(=C\c1ccc(OCc2ccccc2)cc1)C(=O)c1ccc(Cl)cc1
[14]
  T/C: 90 % of control
[2]
  T/C: 87 % of control
[6]
  T/C: 92 % of control

## CC(C)C1=CC2=C[C@H](O)[C@H]3C(C)(C)CCC[C@]3(C)C2=C(O)C1=O
dose: 2.0 mg/kg/injection, schedule: Q01DX010 (ip), vehicle: carboxymethylcellulose (CMC)
  T/C: 100 % of control
dose: 2.2 mg/kg/injection, schedule: Q01DX010 (ip), vehicle: carboxymethylcellulose (CMC)
  T/C: 112 % of control
dose: 3.3 mg/kg/injection, schedule: Q01DX010 (ip), vehicle: carboxymethylcellulose (CMC)
  T/C: 116 % of control
dose: 5.0 mg/kg/injection, schedule: Q01DX010 (ip), vehicle: carboxymethylcellulose (CMC)
  T/C: 120 % of control
dose: 10.0 mg/kg/injection, schedule: Q01DX010 (ip), vehicle: carboxymethylcellulose (CMC)
  T/C: 100 % of control
dose: 10.0 mg/kg/injection, schedule: Q01DX010 (ip), vehicle: other
  T/C: 115 % of control
dose: 20.0 mg/kg/injection, schedule: Q01DX010 (ip), vehicle: carboxymethylcellulose (CMC)
  T/C: 110 % of control

## COC(=O)CCCCC(=O)OCC#CC#CCOC(=O)CCCCC(=O)OC
[1]
  T/C: 104 % of control
[3]
  T/C: 104 % of control
[5]
  T/C: 104 % of control
[7]
  T/C: 104 % of control
[9]
  T/C: 109 % of control
[11]
  T/C: 100 % of control

## C=C1C(=O)OC2/C=C(\C)C3(O)C=CC(C)(CC(OC(=O)C(C)C)C12)O3 (stereo unspecified)
dose: 10.0 mg/kg/injection, schedule: Q01DX009 (ip), vehicle: saline
  T/C: 103 % of control
dose: 12.5 mg/kg/injection, schedule: Q01DX009 (ip), vehicle: other
  T/C: 161 % of control
dose: 25.0 mg/kg/injection, schedule: Q01DX009 (ip), vehicle: other
  T/C: 155 % of control
dose: 40.0 mg/kg/injection, schedule: Q01DX009 (ip), vehicle: saline
  T/C: 100 % of control
dose: 50.0 mg/kg/injection, schedule: Q01DX009 (ip), vehicle: other
  T/C: 161 % of control

## O=[N+]([O-])c1ccc(SCc2ccccc2)c2nonc12
[14]
  T/C: 150 % of control
[2]
  T/C: 153 % of control

## O=C1C=C(Nc2ccc(F)cc2)C(Nc2ccc(F)cc2)=CC1=O
dose: 87.5 mg/kg/injection, schedule: Q01DX009 (ip), vehicle: saline with Tween-80
  T/C: 87 % of control
dose: 350.0 mg/kg/injection, schedule: Q01DX009 (ip), vehicle: saline with Tween-80
  T/C: 91 % of control

## c1ccc2c(c1)ccc1cc3c(ccc4ccccc43)cc12
[2]
  T/C: 120 % of control
[4]
  T/C: 118 % of control
[6]
  T/C: 112 % of control
[8]
  T/C: 109 % of control
[12]
  T/C: 109 % of control

## COC(=O)C1(C)N=C(Cc2ccccc2)OO1 (stereo unspecified)
[13]
  T/C: 100 % of control
[14]
  T/C: 110 % of control
[2]
  T/C: 105 % of control

## N=C1CCCC1C(=S)SCCC(N)=O (stereo unspecified)
[14]
  T/C: 99 % of control
[2]
  T/C: 99 % of control
[6]
  T/C: 94 % of control

## C(=N\Nc1nc2ccccc2s1)/c1ccccc1
[1]
  T/C: 95 % of control
[5]
  T/C: 109 % of control
[9]
  T/C: 90 % of control

## COC(=O)C1CCCC23CC(CC12)C(C)(C)C3Br (stereo unspecified)
[3]
  T/C: 95 % of control
[7]
  T/C: 100 % of control
[11]
  T/C: 90 % of control
